{
  "source": "paper PMC10938783",
  "about": "“A novel pan-PI3K inhibitor KTC1101 synergizes with anti-PD-1 therapy by targeting tumor suppression and immune activation” (Molecular Cancer, 2024)",
  "key": {"S24 tumors": {"test_system": "S24 tumors", "assay": "S24 syngeneic model in C57BL/6 mice", "format": "in vivo, mouse", "conditions": "S24 in WT C57BL/6 mice, 100 mg/kg daily oral gavage", "procedure": "To generate syngeneic mouse models, S24 and B16 cells were subcutaneously injected into the right lateral flank of 4- to 5-week-old male C57BL/6 mice. Tumors were allowed to grow to a volume of 100 mm^3, and then the animals were randomly divided into several groups. For S24 tumor-bearing mice, each group of five mice was treated with either vehicle or KTC1101 (100 mg/kg, PO). Tumor size was measured every 3 d or 4 d until the endpoint. For B16 tumor-bearing mice, each group of five mice was treated with either vehicle, KTC1101 (50 or 100 mg/kg, PO), anti-PD-1 antibody (250 μg per mouse, clone RPM1-14, Bio X cell, IP), or KTC1101 and anti-PD-1 antibody. Tumor size was monitored every other day, and the tumor was harvested at indicated time points for analysis of tumor-infiltrating lymphocytes. The tumor volume was calculated using the following formula: length × width × height/2."}, "p-Akt, p-S6, Ki67": {"test_system": "p-Akt, p-S6, Ki67", "assay": "H&E and immunohistochemical staining of xenograft tumors", "format": "in vivo, mouse", "conditions": "IHC, PC3 and TMD8 xenografts", "procedure": "H&E and IHC staining were performed as previously described. H&E staining was used to detect pathological changes in morphology. For histological analysis, formalin-fixed, paraffin-embedded tumors were sectioned, and slides were deparaffinized using xylene (Thermo Fisher). Endogenous peroxidases were quenched with 3% hydrogen peroxide in methanol. Staining was performed using antibodies against phosphorylated Akt (Ser473), phosphorylated S6 (Ser235/236), or Ki67. Counterstaining was performed with Mayer’s hematoxylin (Dako). Slides were observed under an Olympus CX21 microscope and scanned with a high-resolution digital slide scanner (Pannoramic 250, 3DHistech) to capture images."}},
  "data": [
    {"smiles": "COc1cc(N)cc2c1nc(C(F)F)n2-c1nc(N2CCCOCC2)nc(N2CCOCC2)n1", "note": "[KTC1101, 2-(difluoromethyl)-4-methoxy-1-(4-morpholino-6-(1,4-oxazepan-4-yl)-1,3,5-triazin-2-yl)-1H-benzo[d]imidazol-6-amine]", "values": [
      {"measurement": "time until relapse was detected", "setting": "S24 tumors", "result": 18, "unit": "days"},
      {"measurement": "Ki67 expression in tumor tissues", "setting": "p-Akt, p-S6, Ki67", "result": "notable reduction in Ki67 expression"},
      {"measurement": "phosphorylation of AKT in tumor tissues", "setting": "p-Akt, p-S6, Ki67", "result": "decreased phosphorylation of AKT"}
    ]}
  ]
}
